Test results taken from PubChem BioAssay (NCI).
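Cultured in 96-well plates, cells were exposed to test compound for 48 hours across five concentrations. GI50 marks 50% less growth. Definition used: TGI = concentration required for complete inhibition of growth.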

What was measured:
Test in all cases: NCI anticancer screen, dose series, 48 h
CCRF-CEM leukemia = test system: CCRF-CEM leukemia
MALME-3M melanoma = test system: MALME-3M melanoma
BT-549 breast = test system: BT-549 breast
UACC-257 melanoma = test system: UACC-257 melanoma
IGROV1 ovarian = test system: IGROV1 ovarian
OVCAR-8 ovarian = test system: OVCAR-8 ovarian
MCF7 breast = test system: MCF7 breast
SR leukemia = test system: SR leukemia
HT29 colon = test system: HT29 colon
HCC-2998 colon = test system: HCC-2998 colon
OVCAR-3 ovarian = test system: OVCAR-3 ovarian
NCI-H522 lung = test system: NCI-H522 lung
U251 CNS = test system: U251 CNS
NCI-H460 lung = test system: NCI-H460 lung
NCI/ADR-RES ovarian = test system: NCI/ADR-RES ovarian
SK-MEL-2 melanoma = test system: SK-MEL-2 melanoma
SW-620 colon = test system: SW-620 colon
SN12C renal = test system: SN12C renal
RPMI-8226 leukemia = test system: RPMI-8226 leukemia
NCI-H226 lung = test system: NCI-H226 lung
M14 melanoma = test system: M14 melanoma
SK-MEL-28 melanoma = test system: SK-MEL-28 melanoma
UO-31 renal = test system: UO-31 renal
A549 NSCLC = test system: A549 NSCLC
SF-539 CNS = test system: SF-539 CNS
SK-MEL-5 melanoma = test system: SK-MEL-5 melanoma
UACC-62 melanoma = test system: UACC-62 melanoma
SNB-19 CNS = test system: SNB-19 CNS
OVCAR-4 ovarian = test system: OVCAR-4 ovarian
OVCAR-5 ovarian = test system: OVCAR-5 ovarian
LOX IMVI melanoma = test system: LOX IMVI melanoma
SK-OV-3 ovarian = test system: SK-OV-3 ovarian
HS 578T breast = test system: HS 578T breast
NCI-H23 lung = test system: NCI-H23 lung
EKVX NSCLC = test system: EKVX NSCLC
RXF 393 renal = test system: RXF 393 renal
PC-3 prostate = test system: PC-3 prostate
ACHN renal = test system: ACHN renal
MDA-MB-435 = test system: MDA-MB-435
COLO 205 colon = test system: COLO 205 colon
MDA-MB-231 breast = test system: MDA-MB-231 breast
786-0 renal = test system: 786-0 renal
MOLT-4 leukemia = test system: MOLT-4 leukemia
HOP-62 NSCLC = test system: HOP-62 NSCLC
TK-10 renal = test system: TK-10 renal
DU-145 prostate = test system: DU-145 prostate
SF-268 CNS = test system: SF-268 CNS
SNB-75 CNS = test system: SNB-75 CNS
SF-295 CNS = test system: SF-295 CNS
HCT-15 colon = test system: HCT-15 colon
A498 renal = test system: A498 renal
HOP-92 NSCLC = test system: HOP-92 NSCLC
HCT-116 colon = test system: HCT-116 colon
KM12 colon = test system: KM12 colon
CAKI-1 renal = test system: CAKI-1 renal
T-47D breast = test system: T-47D breast
K-562 leukemia = test system: K-562 leukemia
HL-60(TB) leukemia = test system: HL-60(TB) leukemia

CCS(=O)(=O)N1CCN(c2ccc(Nc3ncc(C(N)=O)c(NC4CC4)n3)cc2)CC1
GI50 (CCRF-CEM leukemia): 0.749 µM | TGI (CCRF-CEM leukemia): 10.9 µM | GI50 (MALME-3M melanoma): 20 µM | TGI (MALME-3M melanoma): 85.2 µM | GI50 (BT-549 breast): 3.19 µM | TGI (BT-549 breast): 11.3 µM | GI50 (UACC-257 melanoma): 21.2 µM | TGI (UACC-257 melanoma): > 100 µM | GI50 (IGROV1 ovarian): 5.29 µM | TGI (IGROV1 ovarian): > 100 µM | GI50 (OVCAR-8 ovarian): 5.62 µM | TGI (OVCAR-8 ovarian): 88.1 µM | GI50 (MCF7 breast): 4.77 µM | TGI (MCF7 breast): > 100 µM | GI50 (SR leukemia): 2.78 µM | TGI (SR leukemia): 23.4 µM | GI50 (HT29 colon): 6.14 µM | TGI (HT29 colon): 21.6 µM | GI50 (HCC-2998 colon): 23.8 µM | TGI (HCC-2998 colon): > 100 µM | GI50 (OVCAR-3 ovarian): 5.73 µM | TGI (OVCAR-3 ovarian): 31.4 µM | GI50 (NCI-H522 lung): 14.1 µM | TGI (NCI-H522 lung): 44.1 µM | GI50 (U251 CNS): 54.1 µM | TGI (U251 CNS): > 100 µM | GI50 (NCI-H460 lung): 15.3 µM | TGI (NCI-H460 lung): 59.9 µM | GI50 (NCI/ADR-RES ovarian): 9.59 µM | TGI (NCI/ADR-RES ovarian): > 100 µM | GI50 (SK-MEL-2 melanoma): 4.62 µM | TGI (SK-MEL-2 melanoma): 21.4 µM | GI50 (SW-620 colon): 20.6 µM | TGI (SW-620 colon): 61.9 µM | GI50 (SN12C renal): 2.6 µM | TGI (SN12C renal): 49.6 µM | GI50 (RPMI-8226 leukemia): 2.16 µM | TGI (RPMI-8226 leukemia): 9.82 µM | GI50 (NCI-H226 lung): 7.12 µM | TGI (NCI-H226 lung): 35.9 µM | GI50 (M14 melanoma): 3.23 µM | TGI (M14 melanoma): 69 µM | GI50 (SK-MEL-28 melanoma): 13.6 µM | TGI (SK-MEL-28 melanoma): 35.6 µM | GI50 (UO-31 renal): 1.1 µM | TGI (UO-31 renal): 18.4 µM | GI50 (A549 NSCLC): 19 µM | TGI (A549 NSCLC): > 100 µM | GI50 (SF-539 CNS): 2.09 µM | TGI (SF-539 CNS): 10.7 µM | GI50 (SK-MEL-5 melanoma): 3.13 µM | TGI (SK-MEL-5 melanoma): 26.6 µM | GI50 (UACC-62 melanoma): 15.7 µM | TGI (UACC-62 melanoma): 44 µM | GI50 (SNB-19 CNS): 38 µM | TGI (SNB-19 CNS): > 100 µM | GI50 (OVCAR-4 ovarian): 12.1 µM | TGI (OVCAR-4 ovarian): > 100 µM | GI50 (OVCAR-5 ovarian): 36.8 µM | TGI (OVCAR-5 ovarian): > 100 µM | GI50 (LOX IMVI melanoma): 3.07 µM | TGI (LOX IMVI melanoma): > 100 µM | GI50 (SK-OV-3 ovarian): 7.93 µM | TGI (SK-OV-3 ovarian): 26.3 µM | GI50 (HS 578T breast): 10.9 µM | TGI (HS 578T breast): 57.3 µM | GI50 (NCI-H23 lung): 5.46 µM | TGI (NCI-H23 lung): > 100 µM | GI50 (EKVX NSCLC): 63 µM | TGI (EKVX NSCLC): > 100 µM | GI50 (RXF 393 renal): 1.61 µM | TGI (RXF 393 renal): 9.46 µM | GI50 (PC-3 prostate): 16.1 µM | TGI (PC-3 prostate): > 100 µM | GI50 (ACHN renal): 12.5 µM | TGI (ACHN renal): 82.8 µM | GI50 (MDA-MB-435): 5.6 µM | TGI (MDA-MB-435): > 100 µM | GI50 (COLO 205 colon): 2.61 µM | TGI (COLO 205 colon): 21.2 µM | GI50 (MDA-MB-231 breast): 22.8 µM | TGI (MDA-MB-231 breast): > 100 µM | GI50 (786-0 renal): 5.31 µM | TGI (786-0 renal): > 100 µM | GI50 (MOLT-4 leukemia): 2.7 µM | TGI (MOLT-4 leukemia): 16.5 µM | GI50 (HOP-62 NSCLC): 3.51 µM | TGI (HOP-62 NSCLC): 29.7 µM | GI50 (TK-10 renal): 9.19 µM | TGI (TK-10 renal): 32.2 µM | GI50 (DU-145 prostate): 8.63 µM | TGI (DU-145 prostate): > 100 µM | GI50 (SF-268 CNS): 13.9 µM | TGI (SF-268 CNS): 52.9 µM | GI50 (SNB-75 CNS): 2.46 µM | TGI (SNB-75 CNS): 9.53 µM | GI50 (SF-295 CNS): 5.01 µM | TGI (SF-295 CNS): 94.3 µM | GI50 (HCT-15 colon): 2.64 µM | TGI (HCT-15 colon): 27.1 µM | GI50 (A498 renal): 4.32 µM | TGI (A498 renal): 8.97 µM | GI50 (HOP-92 NSCLC): 4.9 µM | TGI (HOP-92 NSCLC): > 100 µM | GI50 (HCT-116 colon): 5.84 µM | TGI (HCT-116 colon): > 100 µM | GI50 (KM12 colon): 0.812 µM | TGI (KM12 colon): 18.5 µM | GI50 (CAKI-1 renal): 5.46 µM | TGI (CAKI-1 renal): 28.5 µM | GI50 (T-47D breast): 2.88 µM | TGI (T-47D breast): 13.9 µM | GI50 (K-562 leukemia): 4.94 µM | TGI (K-562 leukemia): > 100 µM

CCCC(C(=O)Nc1cccc2[nH]cnc12)C(=O)OCC (stereo not given)
TGI (BT-549 breast): > 100 µM | TGI (UACC-257 melanoma): > 100 µM | TGI (IGROV1 ovarian): > 100 µM | TGI (OVCAR-8 ovarian): > 100 µM | TGI (MCF7 breast): > 100 µM | TGI (SR leukemia): > 100 µM | TGI (HT29 colon): > 100 µM | TGI (HCC-2998 colon): > 100 µM | TGI (OVCAR-3 ovarian): > 100 µM | TGI (NCI-H522 lung): > 100 µM | TGI (U251 CNS): > 100 µM | TGI (NCI-H460 lung): > 100 µM | TGI (NCI/ADR-RES ovarian): > 100 µM | TGI (SK-MEL-2 melanoma): > 100 µM | TGI (SW-620 colon): > 100 µM | TGI (SN12C renal): > 100 µM | TGI (RPMI-8226 leukemia): > 100 µM | TGI (NCI-H226 lung): > 100 µM | TGI (M14 melanoma): > 100 µM | TGI (SK-MEL-28 melanoma): > 100 µM | TGI (UO-31 renal): > 100 µM | TGI (A549 NSCLC): > 100 µM | TGI (SF-539 CNS): > 100 µM | TGI (UACC-62 melanoma): > 100 µM | TGI (SNB-19 CNS): > 100 µM | TGI (HL-60(TB) leukemia): > 100 µM | TGI (OVCAR-4 ovarian): > 100 µM | TGI (OVCAR-5 ovarian): > 100 µM | TGI (LOX IMVI melanoma): > 100 µM | TGI (SK-OV-3 ovarian): > 100 µM | TGI (HS 578T breast): > 100 µM | TGI (EKVX NSCLC): > 100 µM | TGI (PC-3 prostate): > 100 µM | TGI (ACHN renal): > 100 µM | TGI (MDA-MB-435): > 100 µM | TGI (MDA-MB-231 breast): > 100 µM | TGI (786-0 renal): > 100 µM | TGI (MOLT-4 leukemia): > 100 µM | TGI (HOP-62 NSCLC): > 100 µM | TGI (TK-10 renal): > 100 µM | TGI (DU-145 prostate): > 100 µM | TGI (SF-268 CNS): > 100 µM | TGI (SNB-75 CNS): > 100 µM | TGI (SF-295 CNS): > 100 µM | TGI (HCT-15 colon): > 100 µM | TGI (A498 renal): > 100 µM | TGI (HOP-92 NSCLC): > 100 µM | TGI (HCT-116 colon): > 100 µM | TGI (KM12 colon): > 100 µM | TGI (T-47D breast): > 100 µM | TGI (K-562 leukemia): > 100 µM
